Entries after “also recorded” stand apart in the source; their conditions may differ.
Legend:
p53 and γH2AX = test: Western blot for DNA damage markers p53 and γH2AX in heart and lung tissue of mice exposed to 6 Gy high LET proton radiation; assay type: in vivo; settings: 200 mg/kg s.c. 24 hours before 6 Gy high LET proton radiation, tissues harvested 3 days later, vs tubulin control
Protocol: FIG. 2 is a western blot with heart and lung tissue extracted from animals that were treated with or without genistein [200 mg/kg subcutaneously (s.c.)] and then exposed to 6 Gy high LET proton radiation 24 hours after treatment. The indicated tissues were harvested 3 days later. The levels of p53 (a DNA damage response protein) and γH2AX (a direct measurement of DNA damage) were measured and compared to a tubulin control.
(§1) Mice were prophylactically administered genistein (200 mg/kg) via s.c. injection 24 hours prior to radiation exposure. Appropriate sham radiation and vehicle controls were applied. Radiation exposures of 6 Gy with high-LET protons [50 MeV fully modulated spread-out Bragg peak (SOBP)] were utilized. The following parameters were examined:
DNA damage in tissues—Lungs and heart were surgically removed and subjected to thin-slice sectioning, followed by western blot analysis for the DNA damage markers p53 and γH2AX (an effective measure of proton radiation-induced biological damage; see, Liu et al., Radiation Oncology 91(5):1081-1089, 2015), as well as tubulin control.

[1] = tested on: CXCL1 cytokine, G-CSF, TNFα; test: Multi-cytokine LUMINEX panel on peripheral blood of mice exposed to 6 Gy high LET proton radiation; assay type: in vivo; settings: 200 mg/kg s.c. 24 hours before 6 Gy high LET proton radiation; blood taken 3, 6 and 12 days after exposure
Protocol: FIGS. 4A, 4B, and 4C are graphs plotting the levels of CXCL1 cytokine (FIG. 4A), granulocyte colony stimulating factor (G-CSF; FIG. 4B), and tumor necrosis factor alpha (TNFα; FIG. 4C) in blood from mice injected with 200 mg/kg genistein (s.c.) 24 hours prior to exposure to 6 Gy high LET proton radiation. In these experiments, blood was drawn from mice on the indicated days following radiation exposure, and the levels of cytokines were assayed.
as §1
Cytokine response—Peripheral blood was taken from the treated and irradiated mice 3, 6, and 12 days after radiation exposure, and assessed using a multi-cytokine LUMINEX® panel to evaluate the global inflammatory cytokine response.

Human cardiomyocytes = test: Live cell counts of human cardiomyocytes after mixed field (32% neutron, 68% gamma) radiation; assay type: cell-based; settings: treated 24 hours before exposure to various doses of MF radiation; counts 3 days after exposure
Protocol: FIG. 5 is a graph plotting the number of live human cardiomyocytes after treatment of the cells with genistein 24 hours before exposure to various doses of mixed field (32% neutron, 68% gamma) radiation (henceforth referred to as “MF” radiation). Live cell counts were performed 3 days after radiation exposure.
Human cardiomyocytes were treated with genistein 24 hours before exposure to various doses of mixed field (“MF,” 32% neutron, 68% gamma) radiation. Live cell counts were performed 3 days after radiation exposure.

[2] = in several pharmaceutically acceptable solvents; cited from earlier work

O=c1c(-c2ccc(O)cc2)coc2cc(O)cc(O)c12 [genistein, 5,7-dihydroxy-3-(4-hydroxyphenyl)-chromen-4-one]
p53 levels in response to radiation exposure (p53 and γH2AX): prevented a marked increase in p53 levels | p53 levels in response to radiation exposure (p53 and γH2AX; listed as Genistein): ameliorated the effects of proton radiation | γH2AX levels (p53 and γH2AX; listed as Genistein): lower levels of γH2AX; also recorded: ameliorated the effects of proton radiation | expression of CXCL1 cytokine in blood [1]: mitigated the effects of proton radiation | expression of G-CSF in blood [1]: mitigated the effects of proton radiation | expression of TNFα in blood [1]: mitigated the effects of proton radiation | survival (live cell counts) after MF radiation (Human cardiomyocytes): increased survival | solubility [2]: low to virtually no solubility

From US11419827B2, “Protecting tissue and mitigating injury from radiation-induced ionizing events” (Humanetics Corporation, priority 2017, dated 2022)
